# Measurements published in patent US12077503B2, “Substituted cyclic amides and their use as herbicides” (FMC CORPORATION, priority 2015, dated 2024).
# Columns and labels:
# Assay type in all cases: in vivo
# Kochia (Kochia scoparia) [1] = test: Test A preemergence; conditions: Bassia scoparia, pre-emergence, 240 h, 0 to 100 scale where 0 is no effect and 100 is complete control, read-out: Kochia plant response rating
# Summary of the method: (§1)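 Compounds were formulated in a non-phytotoxic solvent mixture with surfactant and applied as a preemergence directed soil spray after seeding, or sprayed postemergence over plants 2 to 10 cm tall at the one- to two-leaf stage. Evaluation after about 10 d compared treated with untreated controls, using a scale from 0 (no effect) to 100 (complete control).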
# [2] = system: barnyardgrass (Echinochloa crus-galli); test: Test A preemergence; conditions: Echinochloa crus-galli, pre-emergence, 240 h, 0 to 100 scale where 0 is no effect and 100 is complete control, read-out: Barnyardgrass plant response rating
# Summary of the method: as §1
# [3] = system: giant foxtail (Setaria faberii); test: Test A preemergence; conditions: Setaria faberi, pre-emergence, 240 h, 0 to 100 scale where 0 is no effect and 100 is complete control, read-out: Foxtail, Giant plant response rating
# Summary of the method: as §1
# [4] = system: pigweed (Amaranthus retroflexus); test: Test A preemergence; conditions: Amaranthus retroflexus, pre-emergence, 240 h, 0 to 100 scale where 0 is no effect and 100 is complete control, read-out: Pigweed plant response rating
# [5] = system: ragweed (common ragweed, Ambrosia elatior); test: Test A preemergence; conditions: Ambrosia artemisiifolia, pre-emergence, 240 h, 0 to 100 scale where 0 is no effect and 100 is complete control, read-out: Ragweed plant response rating
# Summary of the method: as §1
# [6] = system: ryegrass, Italian (Italian ryegrass, Lolium multiflorum); test: Test A preemergence; conditions: Lolium multiflorum, pre-emergence, 240 h, 0 to 100 scale where 0 is no effect and 100 is complete control, read-out: Ryegrass, Italian plant response rating
# Summary of the method: as §1
# [7] = system: Galium (catchweed bedstraw, Galium aparine); test: Test A postemergence; conditions: Galium, post-emergence, 240 h
# Summary of the method: as §1
# Kochia (Kochia scoparia) [8] = test: Test A postemergence; conditions: Bassia scoparia, post-emergence, 240 h
# Summary of the method: as §1
# [9] = system: barnyardgrass (Echinochloa crus-galli); test: Test A postemergence; conditions: Echinochloa crus-galli, post-emergence, 240 h
# Summary of the method: as §1
# [10] = system: blackgrass (Alopecurus myosuroides); test: Test A postemergence; conditions: Alopecurus myosuroides, post-emergence, 240 h
# Summary of the method: as §1
# corn (Zea mays) = test: Test A postemergence; conditions: Zea mays, post-emergence, 240 h
# Summary of the method: as §1
# [11] = system: giant foxtail (Setaria faberii); test: Test A postemergence; conditions: Setaria faberi, post-emergence, 240 h
# Summary of the method: as §1
# [12] = system: pigweed (Amaranthus retroflexus); test: Test A postemergence; conditions: Amaranthus retroflexus, post-emergence, 240 h, 125 g ai/ha, postemergence, visual injury vs untreated controls after approx. 10 d; 0 = no effect, 100 = complete control; read-out: Pigweed plant response rating (0 to 100 scale)
# Summary of the method: as §1
# [13] = system: ragweed (common ragweed, Ambrosia elatior); test: Test A postemergence; conditions: Ambrosia artemisiifolia, post-emergence, 240 h, 125 g ai/ha, postemergence, visual injury vs untreated controls after approx. 10 d; 0 = no effect, 100 = complete control; read-out: Ragweed plant response rating (0 to 100 scale)
# Summary of the method: as §1
# [14] = system: ryegrass, Italian (Italian ryegrass, Lolium multiflorum); test: Test A postemergence; conditions: Lolium multiflorum, post-emergence, 240 h, 125 g ai/ha, postemergence, visual injury vs untreated controls after approx. 10 d; 0 = no effect, 100 = complete control; read-out: Ryegrass, Italian plant response rating (0 to 100 scale)
# Summary of the method: as §1
# [15] = system: wheat (Triticum aestivum); test: Test A postemergence; conditions: Triticum aestivum, post-emergence, 240 h, 125 g ai/ha, postemergence, visual injury vs untreated controls after approx. 10 d; 0 = no effect, 100 = complete control; read-out: Wheat plant response rating (0 to 100 scale)
# Summary of the method: as §1
# [16] = system: barnyardgrass (Echinochloa crus-galli); test: Test B flooded paddy test; conditions: Echinochloa crus-galli, 250 g ai/ha, Flood; 0 to 100 scale where 0 is no effect and 100 is complete control; read-out: Barnyardgrass plant response rating
# Summary of the method: (§2)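 Flooding to 3 cm over soil accompanied treatment, which consisted of adding compound to the standing water around 2-leaf plants; depth was then maintained. Visual assessment versus controls followed at 13 to 15 d (scale 0–100, 0 meaning no effect).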
# [17] = system: ducksalad (Heteranthera limosa); test: Test B flooded paddy test; conditions: Heteranthera limosa, 250 g ai/ha, Flood; 0 to 100 scale where 0 is no effect and 100 is complete control; read-out: Ducksalad plant response rating
# Summary of the method: as §2
# rice (Oryra sativa) = test: Test B flooded paddy test; conditions: Oryza sativa, 250 g ai/ha, Flood; 0 to 100 scale where 0 is no effect and 100 is complete control; read-out: Rice plant response rating
# Summary of the method: as §2
# [18] = system: sedge, umbrella (small-flower umbrella sedge, Cyperus difformis); test: Test B flooded paddy test; conditions: Cyperus difformis, 250 g ai/ha, Flood; 0 to 100 scale where 0 is no effect and 100 is complete control; read-out: Sedge, Umbrella plant response rating
# Summary of the method: as §2
# [19] = 125 g ai/ha, preemergence, approx. 10 d
structure (smiles),measurement,setting,value
CN1C[C@H](c2ccc(C(F)(F)F)c(O)c2)[C@@H](C(=O)Nc2cccc(F)c2F)C1=O [Compound 1173],pest or weed control at 31 g/ha,"Kochia (Kochia scoparia) [1]; 31 g ai/ha, Preemergence",0%
same,pest or weed control at 125 g/ha,Kochia (Kochia scoparia) [1]; [19],20%
same,pest or weed control at 31 g/ha,"[2]; 31 g ai/ha, Preemergence",60%
same,pest or weed control at 125 g/ha,[2]; [19],90%
same,pest or weed control at 31 g/ha,"[3]; 31 g ai/ha, Preemergence",30%
same,pest or weed control at 125 g/ha,[3]; [19],80%
same,pest or weed control at 31 g/ha,"[4]; 31 g ai/ha, Preemergence",0%
same,pest or weed control at 125 g/ha,[4]; [19],0%
same,pest or weed control at 31 g/ha,"[5]; 31 g ai/ha, Preemergence",0%
same,pest or weed control at 125 g/ha,[5]; [19],40%
same,pest or weed control at 31 g/ha,"[6]; 31 g ai/ha, Preemergence",0%
same,pest or weed control at 125 g/ha,[6]; [19],30%
same,pest or weed control at 125 g/ha,"[7]; 125 g ai/ha, postemergence, visual injury vs untreated controls after approx. 10 d, 0 = no effect, 100 = complete control, read-out: Galium plant response rating (0 to 100 scale)",50%
same,pest or weed control at 31 g/ha,"[7]; Postemergence, 31 g ai/ha, visual injury after approx. 10 d, 0 to 100 scale, 0 no effect, 100 complete control, read-out: Plant response rating, Galium",0%
same,pest or weed control at 125 g/ha,"Kochia (Kochia scoparia) [8]; 125 g ai/ha, postemergence, visual injury vs untreated controls after approx. 10 d, 0 = no effect, 100 = complete control, read-out: Kochia plant response rating (0 to 100 scale)",50%
same,pest or weed control at 31 g/ha,"Kochia (Kochia scoparia) [8]; Postemergence, 31 g ai/ha, visual injury after approx. 10 d, 0 to 100 scale, 0 no effect, 100 complete control, read-out: Plant response rating, Kochia",30%
same,pest or weed control at 125 g/ha,"[9]; 125 g ai/ha, postemergence, visual injury vs untreated controls after approx. 10 d, 0 = no effect, 100 = complete control, read-out: Barnyardgrass plant response rating (0 to 100 scale)",70%
same,pest or weed control at 31 g/ha,"[9]; Postemergence, 31 g ai/ha, visual injury after approx. 10 d, 0 to 100 scale, 0 no effect, 100 complete control, read-out: Plant response rating, Barnyardgrass",50%
same,pest or weed control at 125 g/ha,"[10]; 125 g ai/ha, postemergence, visual injury vs untreated controls after approx. 10 d, 0 = no effect, 100 = complete control, read-out: Blackgrass plant response rating (0 to 100 scale)",0%
same,pest or weed control at 31 g/ha,"[10]; Postemergence, 31 g ai/ha, visual injury after approx. 10 d, 0 to 100 scale, 0 no effect, 100 complete control, read-out: Plant response rating, Blackgrass",0%
same,plant injury at 125 g/ha,"corn (Zea mays); 125 g ai/ha, postemergence, visual injury vs untreated controls after approx. 10 d, 0 = no effect, 100 = complete control, read-out: Corn plant response rating (0 to 100 scale)",0%
same,"Corn plant response rating (crop injury, 0 = no effect, 100 = complete kill) at 31 g/ha","corn (Zea mays); Postemergence, 31 g ai/ha, visual injury after approx. 10 d, 0 to 100 scale, 0 no effect, 100 complete control",0%
same,pest or weed control at 125 g/ha,"[11]; 125 g ai/ha, postemergence, visual injury vs untreated controls after approx. 10 d, 0 = no effect, 100 = complete control, read-out: Foxtail, Giant plant response rating (0 to 100 scale)",80%
same,pest or weed control at 31 g/ha,"[11]; Postemergence, 31 g ai/ha, visual injury after approx. 10 d, 0 to 100 scale, 0 no effect, 100 complete control, read-out: Plant response rating, Foxtail, Giant",70%
same,pest or weed control at 125 g/ha,[12],50%
same,pest or weed control at 125 g/ha,[13],10%
same,pest or weed control at 125 g/ha,[14],20%
same,plant injury at 125 g/ha,[15],0%
same,pest or weed control at 250 g/ha,[16],60%
same,pest or weed control at 250 g/ha,[17],90%
same,pest or weed control at 250 g/ha,rice (Oryra sativa),25%
same,pest or weed control at 250 g/ha,[18],0%
